Laboratory results reported in patent US11299472B2, “Fumarate salt of (R)-3-(1-(2,3-dichloro-4-(pyrazin-2-yl)phenyl)-2,2,2- trifluoroethyl)-1-methyl-1-(1-methylpiperidin-4-yl) urea, methods of preparation, and uses thereof” (Helsinn Healthcare SA, priority 2017, dated 2022).
Ends that are not written are not given here.

Tests used:
[1] = GVS analysis (hygroscopicity); type: physicochemical
Method: For the GVS analysis, 15-20 mg of sample was loaded into an IgaSorp vapour sorption balance (Hiden Analytical Instruments). The sample was then dried by maintaining a 0% humidity environment until no further weight change was recorded. The sample was then subjected to a ramping profile from 0 to 90% RH at 10% RH increments, maintaining the sample at each step until equilibration had been attained (99% step completion). Upon reaching equilibrium, the % RH within the apparatus was ramped to the next step and the equilibration procedure repeated. After completion of the sorption cycle, the sample was dried using the same procedure. The weight change during the sorption/desorption cycles were then monitored, allowing for the hygroscopic nature of the sample to be determined.

[2] = Estimated aqueous solubility; type: physicochemical; settings: aqueous (water)
[3] = Rat pharmacokinetic study, HM04 free base vs HM04 fumarate salt (Example 9); type: in vivo, male Sprague Dawley rats
[4] = as above; type: in vivo, male Sprague Dawley rats; settings: 3 mg/kg oral
Method: The pharmacokinetics of HM04 in plasma of male Sprague Dawley rats dosed with a single oral administration of 3 mg/kg HM04 (based on the weight of the free base) formulated in a solution of 10% DMAC, 6% Solutol, and 84% PBS using either the HM04 free base or HM04 fumarate salt were compared. Blood samples were withdrawn at set time intervals and plasma concentration of HM04 was measured by LC-MS/MS. A comparison of the plasma concentration of HM04 (ng/mL) over time in rats dosed orally with HM04 free base and HM04 fumarate salt is provided in FIG. 17.

[5] = Dog pharmacokinetic study, HM04 free base vs HM04 fumarate salt (Example 9); type: in vivo, male Beagle dogs
[6] = as above; type: in vivo, male Beagle dogs; remark: listed apart in the source
Method: The pharmacokinetics of HM04 in plasma of male Beagle dogs dosed with a single oral administration of 2 mg/kg HM04 formulated in a solution of 10% DMAC, 6% Solutol, and 84% PBS using either the HM04 free base or HM04 fumarate salt were compared. A comparison of the plasma concentration of HM04 (ng/mL) over time in dogs dosed orally with HM04 free base and HM04 fumarate salt is provided in FIG. 18. Bioavailability was calculated from a dose normalized ratio of the oral mean AUC to the intravenous mean AUC (AUCpo/AUCiv×Doseiv/Dosepo).

[7] = tested on: Snord116+/− (Het) mice and wild-type (WT) littermates; assay: Food intake after acute administration in Prader-Willi mouse model; type: in vivo; settings: cabergoline 0.5 mg/kg single i.p., fasted 16 hours
Source text: The effect of HM04 fumarate salt on food intake behavior and glucose tolerance was investigated in the Snord116+/−(Het) mouse genetic model of Prader-Willi syndrome (Het mouse) compared to wild-type (WT) littermates. Since D2R agonists suppress food intake, the FDA approved D2R agonist cabergoline was used as an experimental control. Phenotypic characteristics of this PWS mouse model include hyperphagia, postnatal growth retardation, high ghrelin, and low growth hormone. Ding F., et al. SnoRNA Snord116 (Pwcr1/MBII-85) deletion causes growth deficiency and hyperphagia in mice. PloS one. 2008; 3(3):e1709. These PWS mice eat more frequently than WT littermates, particularly during the light cycle and are more motivated to work for food (more level presses) (data not shown).
Acute administration: Mice (3-, 7-, and 12-month-old) were fasted for 16 hours and then administered a single intraperitoneal injection of vehicle or vehicle containing HM04, cabergoline, or HM04 and cabergoline according to Table 8, below.
HM04 was dissolved in water for injection and cabergoline was dissolved in DMSO to provide a 5% DMSO/water solution for injection. Mice were then given free access to food, and cumulative food intake was measured at 1, 2, 4, 8, 12, and 24 hours post-dosing. […] Data was analyzed for significance using 2-way ANOVA, Bonferroni post hoc test (Graphpad Prism, Prism 5.0, San Diego, Calif.).

[8] = tested on: ghrelin-induced increase of GH; assay: Ghrelin-induced increase of growth hormone in rats; type: in vivo; settings: after 15 μg/kg ghrelin i.v.
Method: Rats were divided into four groups: 1) 1 ml/kg saline plus 10 ml/kg 0.5% CMC p.o. (n=6); 2) 15 μg/kg ghrelin i.v. plus 10 ml/kg 0.5% CMC p.o. (n=6); 3) 30 mg/kg HM04 fumarate salt p.o. 2 hours before 15 μg/kg ghrelin i.v. (n=6); 4) 10 mg/kg ghrelin antagonist R011 i.p. 30 minutes before 15 μg/kg ghrelin i.v. (n=6). Blood was collected as 100 μl samples at time 0 and at 15 minutes after ghrelin injection. Rats were anesthetized with 64.8 mg/kg sodium pentobarbital. A catheter filled with heparinized saline solution was inserted in the left femoral artery for blood collection and fitted with an extension tube, 1-mL sampling syringe, and a 3-way cock to allow excess blood to return.
Plasma levels of growth hormone (GH) were determined using Rat GH ELISA (Millipore, Catalog No. EZRMGH-45K). Measurements were performed in duplicate. […] One-way and two-way ANOVA test was used to compare differences between groups. All values are presented as mean±SEM. One-way ANOVA was performed followed by Turkey's post hoc test where significance was indicated by p values<0.05 or p values<0.01.

[9] = male, Sprague Dawley, plasma, mean ± S.D., n=3
[10] = male, Beagle, plasma, 2 mg/kg oral, mean ± S.D., n=3

With CN1CCC(N(C)C(=O)N[C@H](c2ccc(-c3cnccn3)c(Cl)c2Cl)C(F)(F)F)CC1 [HM04 free base, (R)-3-(1-(2,3-dichloro-4-(pyrazin-2-yl)phenyl)-2,2,2-trifluoroethyl)-1-methyl-1-(1-methylpiperidin-4-yl) Urea] the “hygroscopicity (GVS)” value [1] was “slightly hygroscopic”, the “weight gain (GVS)” value ([1]; up to 70% relative humidity (RH)) was “approximately 1.5%” and the “weight gain (GVS)” value ([1]; up to 80% RH) was “approximately 2%”. The solubility [2] was under 2000 µg/mL, the HM04 plasma concentration ([3]; 3 mg/kg oral, 0.25 hours, mean ± S.D., n=3) was 24.2 ± 6.6 ng/mL and the HM04 plasma concentration ([3]; 3 mg/kg oral, 4 hours, mean ± S.D., n=3) was 25.0 ± 13.0 ng/mL. For the same compound, the AUC ([3]; male, Sprague Dawley, plasma, 3 mg/kg intravenous, three rats, read-out: mean AUC following intravenous administration) was 990 ± 24.6 ng·h/mL, the bioavailability ([3]; male, Sprague Dawley, plasma, 3 mg/kg oral vs 3 mg/kg intravenous mean AUC) was 22.2 ± 5.8% and the Cmax ([3]; male, Sprague Dawley, plasma, 3 mg/kg oral, mean ± S.D., n=3) was 44.4 ± 6 ng/mL. The HM04 plasma concentration ([4]; 0.50 hours, mean ± S.D., n=3) was 39.0 ± 5.2 ng/mL, the HM04 plasma concentration ([4]; 1 hour, mean ± S.D., n=3) was 44.4 ± 6.0 ng/mL and the HM04 plasma concentration ([4]; 2 hours, mean ± S.D., n=3) was 35.7 ± 11.3 ng/mL. For the same compound, the HM04 plasma concentration ([4]; 8 hours, mean ± S.D., n=3) was 7.9 ± 5.8 ng/mL, the AUC(0-t) [4, 9] was 220 ± 57.2 ng·h/mL and the Tmax [4, 9] was 1 h. It also gave a concentration at 24 hours ([4]; male, Sprague Dawley, plasma, po, 3 mg/kg, 24 hours, N = 1 (two of three animals below level of quantification)) of 2.4 ng/mL, an HM04 plasma concentration ([5]; 2 mg/kg oral, 1 hour, mean ± S.D., n=3) of 66.33 ± 4.25 ng/mL and an HM04 plasma concentration ([5]; 2 mg/kg oral, 4 hours, mean ± S.D., n=3) of 67.34 ± 6.27 ng/mL. It also gave an AUC ([5]; male, Beagle, plasma, 1 mg/kg intravenous, three dogs, read-out: mean AUC following intravenous administration) of 782 ± 364 ng·h/mL, a concentration at 8 h ([5]; male, Beagle, plasma, po, 2 mg/kg, 2 mg/kg oral, 8 hours, mean ± S.D., n=3) of 49.2 ± 10.2 ng/mL and a concentration at 24 h ([5]; male, Beagle, plasma, po, 2 mg/kg, 2 mg/kg oral, 24 hours, mean ± S.D., n=3) of 6.61 ± 4.38 ng/mL. The HM04 plasma concentration ([6]; 2 mg/kg oral, 0.25 hours, mean ± S.D., n=3) was 8.94 ± 5.56 ng/mL, the HM04 plasma concentration ([6]; 2 mg/kg oral, 0.50 hours, mean ± S.D., n=3) was 49.40 ± 7.72 ng/mL and the HM04 plasma concentration ([6]; 2 mg/kg oral, 2 hours, mean ± S.D., n=3) was 74.05 ± 3.77 ng/mL. It also gave a bioavailability ([6]; male, Beagle, plasma, 2 mg/kg oral vs 1 mg/kg intravenous, dose normalized AUC ratio) of 59.4 ± 9.11%, an AUC(0-t) [6, 10] of 929 ± 142 ng·h/mL and a Cmax [6, 10] of 74 ± 3.77 ng/mL. For the same compound, the Tmax [6, 10] was 2 h.
For C=CCN1C[C@H](C(=O)N(CCCN(C)C)C(=O)NCC)C[C@@H]2c3cccc4[nH]cc(c34)C[C@H]21 [Cabergoline, cabergoline, reference compound], the cumulative food intake ([7]; 7-month-old Het mice) was “inhibited food intake” and the cumulative food intake ([7]; 7-month-old WT mice) was “inhibited food intake”.
With “ghrelin: growth hormone-releasing peptide, injected i.v. to induce GH increase (GSSFLSPEHQRVQQRKESKKPPAKLQPR; ends and bridges not checked; UniProt Q9UBU3 24-51, looked up) [reference compound]” the “mean plasma GH concentration” value [8] was 90 to 120 ng/mL.
